Measurements: publication PMC12564302, “Discovery of N-Hydroxypyridinedione-Based Inhibitors of HBV RNase H: Design, Synthesis, and Extended SAR Studies” (International Journal of Molecular Sciences, 2025)
In brackets after ≈: the same amount, converted by molar mass. Where two headings read alike, the source gives them in different places.

Legend:
HepDES19 cells = settings: cited from earlier work
[1] = test system: HBV replication in HepDES19 cells; settings: cited from earlier work
[2] = Parallel artificial membrane permeability assay; format: in vitro ADME; settings: PAMPA, pH 7.4, PAMPA
Protocol: The evaluation of apparent passive permeability (Papp) at pH 7.4 was performed using a donor/acceptor cassette (Innovative Laboratory Products, Phoenix, AZ, USA and Sigma Aldrich, Burlington, MA, USA), which simulates the apical and basolateral sides of the small intestine epithelium, as previously described. An artificial membrane made of 1% w/v lecithin/dodecane was applied to the poly (vinylidene fluoride) (PVDF) membrane filter and allowed to dry. Following drying, compounds (200 µM) were diluted in buffer at pH 7.4 and added to the donor side of the cassette. The same pH buffer was added on the acceptor side of the cassette, after which it was assembled and incubated at room temperature with shaking at 250 rpm for 2 h, before reading the absorbance of 100 µL from the acceptor well on a plate reader between 230 and 700 nm. The Papp (cm/s) values for compounds were determined by normalizing to the compound absorbance at equilibrium using the peak absorbance point for each compound, buffer volume, incubation time, and membrane porosity. Two or more replicate assays were conducted on different days.

Solubility limit assay = format: physicochemical; settings: DMEM-F12 without phenol red with 10% FBS, pH 7.4, plasma or biological fluid, kinetic from dmso stock
Protocol: Solubility limits of compounds were tested as previously reported in DMEM-F12 without phenol red (Gibco, Grand Island, NY, USA) but with the media supplemented with 10% FBS (pH 7.4) to mimic cell culture experiments. In a 384-well optically clear plate, compounds were serially diluted in pH 7.4 buffer (upper limit 200 µM, DMSO 1%) then read at 620 nm. Solubility limits were determined by plotting compound concentration (µM) against optical density (OD) and identifying an inflexion point. The inflexion point is defined by a substantial increase in OD brought on by increasing turbidity, and the compound concentration at this point is known as the solubility limit. Each compound had at least two replicate assays performed on different days.

[3] = test system: HBV RNase H carrying the P790L mutation; assay: Recombinant RNase H biochemical assay (FAM/IowaBlack RNA:DNA heteroduplex); settings: qualitative assay
Protocol: HBV RNase H carrying the P790L mutation that is needed to stabilize the recombinant enzyme was purified from E. coli, and RNase H assays in which an RNA:DNA heteroduplex was incubated with the recombinant enzyme were performed. The RNA strand is FAM-labelled, and the DNA strand carries an IowaBlack quencher. Cleavage of the RNA strand releases the FAM moiety from quenching, causing an increase in fluorescence. Performance limitations with the enzyme limit this assay to just qualitative interpretation.

[4] = test system: HBV replication in HepDES19 cells; assay: qPCR HBV replication inhibition assay; format: cell-based, HBV genotype D; settings: 72 h, (+) polarity DNA strand, pH 7.4, read-out: EC50
Protocol: (§1) HepDES19 cells are a HepG2 cell-line derivative that has been stably transfected with an HBV genotype D genome containing a tetracycline repressible promoter. HepDES19 cells were maintained on collagen-coated plates in Dulbecco’s modified Eagle’s medium (DMEM/F12) (Cytiva Life Sciences, Marlborough, MA, USA) supplemented with 10% fetal bovine serum (FBS), streptomycin (100 µg/mL), and penicillin (100 IU/mL), and incubated at 37 °C with 5% CO2 and saturating humidity. Cells were cultured with 1 µg/mL tetracycline to inhibit the expression of the stably integrated HBV genome, and HBV replication was activated upon removal of tetracycline from the culture medium.
HBV replication inhibition in HepDES19 cells was assessed using a strand-preferential quantitative PCR assay as previously described. HepDES19 cells were seeded in 96 well plates at 4 × 10^4 cells/well for 48 h followed by the addition of serial diluted compound with a final concentration of 1% DMSO for 72 h, after which cells were lysed, and qPCR was performed as described in Li et al.. Effective concentration 50% (EC50) values were calculated from data for the (+) polarity DNA strand data using GraphPad Prism version 10’s four-parameter log (inhibitor) versus response algorithm, with the bottom value set to zero. Three or more replicate assays were performed on different days.

MTS cytotoxicity assay = format: cell-based; settings: human, HepDES19 cells, pH 7.4
Protocol: as §1
Cell viability was assessed using the CellTiter 96^TM Aqueous Non-Radioactive Cell Proliferation assay (MTS) (Promega, Madison, WI, USA) as described previously. HepDES19 cells were seeded in 96 well plates at 1 × 10^4 cells/well for 48 h. Cells were then incubated with serial diluted compound, with a final concentration of 1% DMSO, for 72 h. Following compound incubation, background absorbance values were subtracted, and the data were converted into percent cell viability. The cytotoxic concentration 50% (CC50) values were calculated using GraphPad Prism’s four-parameter log (inhibitor) versus response algorithm, with the bottom value set to zero. Three or more replicate assays were performed on different days.

[5] = Figure 1, earlier HBV RNase H inhibitors
[6] = pH 7.4, 200 µM, 2 h, read-out: Papp
[7] = pH 7.4, read-out: Papp Interpretation
[8] = pH 7.4, DMEM-F12 with 10% FBS, 1% DMSO, upper limit 200 µM, read-out: Solubility Limit
[9] = pH 7.4, read-out: Solubility Limit Interpretation
[10] = Hepatitis B virus, HepDES19, 72 h, pH 7.4, HepDES19 cells
[11] = pH 7.4, previously published compounds
[12] = pH 7.4, previously published compound
[13] = pH 7.4, previously published compound, Table 1

## COc1ccc(CON=C(C)c2c(C)cc(=O)n(O)c2O)cc1 [A24]
HepDES19 cells; [5]
  CC50: 102 µM
[1]; [5]
  EC50: 0.29 µM

## CC(=Nc1ccc(F)c(F)c1)c1c(C)cc(=O)n(O)c1O [Compound 22, 5-(1-((3,4-difluorophenyl)imino)ethyl)-1,6-dihydroxy-4-methylpyridin-2(1H)-one]
[2]; [6]
  Papp at 2 h, 200 µM: 2.99 ×10⁻⁶ cm/s
[2]; [7]
  Papp at 2 h, 200 µM: > 1 ×10⁻⁶ cm/s
Solubility limit assay; [8]
  solubility: > 200 µM
Solubility limit assay; [9]
  solubility: > 100 µM
[3]; at 100 µM
  suppression of RNase H activity: ~ 50%
[3]
  suppression of RNase H activity (in words): dose-dependent suppression of RNase H activity
[4]; HepDES19 cells
  EC50: 0.89 ± 0.4 µM
[4]; [10]
  EC50: 0.9 µM
MTS cytotoxicity assay
  CC50 at 72 h: 100 µM

## CC(=NCc1ccccc1Cl)c1c(C)cc(=O)n(O)c1O [Compound 36, 5-(1-((2-chlorobenzyl)imino)ethyl)-1,6-dihydroxy-4-methylpyridin-2(1H)-one]
[2]; [6]
  Papp at 2 h, 200 µM: 3.04 ×10⁻⁶ cm/s
[2]; [7]
  Papp at 2 h, 200 µM: > 1 ×10⁻⁶ cm/s
Solubility limit assay; [8]
  solubility: 167 µM (≈ 51.1 µg/mL)
Solubility limit assay; [9]
  solubility: > 100 µM
[4]; [10]
  EC50: 2.77 ± 0.8 µM
MTS cytotoxicity assay
  CC50 at 72 h: 52.7 ± 29.3 µM

## CC(=NCc1cccc(Cl)c1)c1c(C)cc(=O)n(O)c1O [Compound 37, 5-(1-((3-chlorobenzyl)imino)ethyl)-1,6-dihydroxy-4-methylpyridin-2(1H)-one]
[2]; [6]
  Papp at 2 h, 200 µM: 5.41 ×10⁻⁶ cm/s
[2]; [7]
  Papp at 2 h, 200 µM: > 1 ×10⁻⁶ cm/s
Solubility limit assay; [8]
  solubility: > 200 µM
Solubility limit assay; [9]
  solubility: > 100 µM
[4]; [10]
  EC50: 4.73 ± 4.4 µM
MTS cytotoxicity assay
  CC50 at 72 h: 34 ± 23 µM

## CC(=NCc1ccc(Cl)cc1)c1c(C)cc(=O)n(O)c1O [Compound 38, 5-(1-((4-chlorobenzyl)imino)ethyl)-1,6-dihydroxy-4-methylpyridin-2(1H)-one]
[2]; [6]
  Papp at 2 h, 200 µM: 3.07 ×10⁻⁶ cm/s
[2]; [7]
  Papp at 2 h, 200 µM: > 1 ×10⁻⁶ cm/s
Solubility limit assay; [8]
  solubility: > 200 µM
Solubility limit assay; [9]
  solubility: > 100 µM
[4]; [10]
  EC50: 18.9 ± 8.4 µM
MTS cytotoxicity assay
  CC50 at 72 h: 22.9 ± 7 µM

## CC(=NCc1cccc(F)c1)c1c(C)cc(=O)n(O)c1O [Compound 39, 5-(1-((3-fluorobenzyl)imino)ethyl)-1,6-dihydroxy-4-methylpyridin-2(1H)-one]
[2]; [6]
  Papp at 2 h, 200 µM: 1.89 ×10⁻⁶ cm/s
[2]; [7]
  Papp at 2 h, 200 µM: > 1 ×10⁻⁶ cm/s
Solubility limit assay; [8]
  solubility: > 200 µM
Solubility limit assay; [9]
  solubility: > 100 µM
[4]; [10]
  EC50: 27.6 ± 3.7 µM
MTS cytotoxicity assay
  CC50 at 72 h: 19.3 ± 10.5 µM

## CC(=NCc1ccc(F)cc1)c1c(C)cc(=O)n(O)c1O [Compound 40, 5-(1-((4-fluorobenzyl)imino)ethyl)-1,6-dihydroxy-4-methylpyridin-2(1H)-one]
[2]; [6]
  Papp at 2 h, 200 µM: 1.1 ×10⁻⁶ cm/s
[2]; [7]
  Papp at 2 h, 200 µM: > 1 ×10⁻⁶ cm/s
Solubility limit assay; [8]
  solubility: > 200 µM
Solubility limit assay; [9]
  solubility: > 100 µM
[4]; [10]
  EC50: 16.5 ± 3.5 µM
MTS cytotoxicity assay
  CC50 at 72 h: 15.4 ± 7.4 µM

## CC(=NCc1ccc(F)c(F)c1)c1c(C)cc(=O)n(O)c1O [Compound 41, 5-(1-((3,4-difluorobenzyl)imino)ethyl)-1,6-dihydroxy-4-methylpyridin-2(1H)-one]
[2]; [6]
  Papp at 2 h, 200 µM: 2.54 ×10⁻⁶ cm/s
[2]; [7]
  Papp at 2 h, 200 µM: > 1 ×10⁻⁶ cm/s
Solubility limit assay; [8]
  solubility: > 200 µM
Solubility limit assay; [9]
  solubility: > 100 µM
[4]; [10]
  EC50: 10.7 ± 0.5 µM
MTS cytotoxicity assay
  CC50 at 72 h: 23.9 ± 11.7 µM

## CC(=NCc1cc(F)cc(F)c1)c1c(C)cc(=O)n(O)c1O [Compound 42, 5-(1-((3,5-difluorobenzyl)imino)ethyl)-1,6-dihydroxy-4-methylpyridin-2(1H)-one]
[2]; [6]
  Papp at 2 h, 200 µM: 1.53 ×10⁻⁶ cm/s
[2]; [7]
  Papp at 2 h, 200 µM: > 1 ×10⁻⁶ cm/s
Solubility limit assay; [8]
  solubility: > 200 µM
Solubility limit assay; [9]
  solubility: > 100 µM
[4]; [10]
  EC50: 73.7 ± 26.3 µM
MTS cytotoxicity assay
  CC50 at 72 h: 82.9 ± 24.6 µM

## CC(=NCCOc1ccc(Cl)cc1)c1c(C)cc(=O)n(O)c1O [Compound 43, 5-(1-((2-(4-chlorophenoxy)ethyl)imino)ethyl)-1,6-dihydroxy-4-methylpyridin-2(1H)-one]
[2]; [6]
  Papp at 2 h, 200 µM: 0.86 ×10⁻⁶ cm/s
[2]; [7]
  Papp at 2 h, 200 µM: < 1 ×10⁻⁶ cm/s
Solubility limit assay; [8]
  solubility: > 200 µM
Solubility limit assay; [9]
  solubility: > 100 µM
[4]; [10]
  EC50: 17.2 ± 6.6 µM
MTS cytotoxicity assay
  CC50 at 72 h: 30.1 ± 12.5 µM

## C/C(=N\OCc1ccccc1Br)c1c(C)cc(=O)n(O)c1O [Compound 46]
HepDES19 cells; [11]
  CC50: 80.8 ± 27.5 µM
[1]; [11]
  EC50: 2 ± 1.6 µM

## C/C(=N\OCc1cccc(Br)c1)c1c(C)cc(=O)n(O)c1O [Compound 47]
HepDES19 cells; [11]
  CC50: 78.5 ± 32.4 µM
[1]; [11]
  EC50: 0.52 ± 0.33 µM

## C/C(=N\OCc1ccc(Br)cc1)c1c(C)cc(=O)n(O)c1O [Compound 48]
HepDES19 cells; [11]
  CC50: 76.7 ± 30.3 µM
[1]; [11]
  EC50: 1.13 ± 0.19 µM

## C/C(=N\OCc1ccccc1Cl)c1c(C)cc(=O)n(O)c1O [Compound 49]
[1]; [11]
  EC50: 0.24 ± 0.09 µM

## C/C(=N\OCc1cccc(Cl)c1)c1c(C)cc(=O)n(O)c1O [Compound 50]
HepDES19 cells; [11]
  CC50: 56.9 ± 31.1 µM
[1]; [11]
  EC50: 1.35 ± 1.03 µM

## C/C(=N\OCc1ccc(Cl)cc1)c1c(C)cc(=O)n(O)c1O [Compound 51]
HepDES19 cells; [11]
  CC50: 46.6 ± 13.6 µM
[1]; [11]
  EC50: 0.36 ± 0.24 µM

## C/C(=N\OCc1ccccc1F)c1c(C)cc(=O)n(O)c1O [Compound 52]
HepDES19 cells; [12]
  CC50: 90 ± 6 µM
[1]; [12]
  EC50: 0.32 ± 0.2 µM

## C/C(=N\OCc1cccc(F)c1)c1c(C)cc(=O)n(O)c1O [Compound 53]
HepDES19 cells; [11]
  CC50: 73.9 ± 28.6 µM
[1]; [11]
  EC50: 0.06 ± 0.01 µM

## C/C(=N\c1ccccc1N)c1c(C)cc(=O)n(O)c1O [Compound 54]
HepDES19 cells; [13]
  CC50: 15 ± 7 µM
[1]; [13]
  EC50: 0.69 ± 0.2 µM
